Source: patent US20130158072A1, “KAPPA OPIOID RECEPTOR BINDING LIGANDS” (Research Triangle Institute, priority 2010, published 2013)
Entries after “also recorded” stand apart in the source; their conditions may differ. Counter-ions that a name gives are not always drawn. Marks after values point to notes of the source that are not given here.

How the values were obtained:
rodents = settings: forced-swim, elevated plus maze, fear-potentiated startle; cited from earlier work
[1] = target: T1, cloned human κ-opioid receptor (Homo sapiens, UniProt P41145); assay: Inhibition of U69,593-stimulated [35S]GTPγS binding; settings: for κ, U69,593 Ke / κ, U69,593 Ke (nM): antagonism of U69,593-stimulated [35S]GTPγS binding, CHO cells, means ± SE, at least three experiments; for δ/κ / μ/κ: ratio of Ke values; for δ/κ: κ selectivity relative to δ; for μ/κ: κ selectivity relative to μ
Description: (§1) Test compound assay concentrations ranged from 1-5000 nM, depending on their activity. The Ke values were calculated using the formula: Ke=[L]/DR−1, where [L] is the concentration of test compound and DR is the ratio of agonist EC50 value in the presence or absence of test compound, respectively.

mice = settings: oral; cited from earlier work
[2] = target: T1, cloned human κ-opioid receptor; design: expressed in transfected cells; host or cells: CHO cells; settings: previously reported; cited from earlier work
[3] = target: T2, cloned human δ-opioid receptor (Homo sapiens, UniProt P41143); assay: Intrinsic activity in the [35S]GTPγS binding assay; type: biochemical; settings: at 10 μM
T2 construct: expressed in transfected cells; host or cells: CHO cells
Description: as §1

κ-opioid receptor = settings: in vivo, compared with other κ-opioid antagonists; cited from earlier work
[4] = target: T3, cloned human μ-opioid receptor (Homo sapiens, UniProt P35372); assay: Intrinsic activity in the [35S]GTPγS binding assay; type: biochemical; settings: at 10 μM
T3 construct: expressed in transfected cells; host or cells: CHO cells
Description: as §1

[5] = target: T1, cloned human κ-opioid receptor; assay: Intrinsic activity in the [35S]GTPγS binding assay; type: biochemical; design: expressed in transfected cells; host or cells: CHO cells; settings: at 10 μM
Description: as §1

rats = settings: oral; cited from earlier work
[6] = target: T3, cloned human μ-opioid receptor; assay: Inhibition of DAMGO-stimulated [35S]GTPγS binding; type: biochemical; settings: for potency at μ receptors compared to 3: compared with 3
Description: as §1

[7] = target: T2, cloned human δ-opioid receptor; assay: Inhibition of DPDPE-stimulated [35S]GTPγS binding; type: biochemical; settings: antagonism of DPDPE-stimulated [35S]GTPγS binding, CHO cells; means ± SE, at least three experiments
Description: as §1

[8] = antagonism of DAMGO-stimulated [35S]GTPγS binding, CHO cells, means ± SE, at least three experiments

T3 sequence (P35372 whole entry): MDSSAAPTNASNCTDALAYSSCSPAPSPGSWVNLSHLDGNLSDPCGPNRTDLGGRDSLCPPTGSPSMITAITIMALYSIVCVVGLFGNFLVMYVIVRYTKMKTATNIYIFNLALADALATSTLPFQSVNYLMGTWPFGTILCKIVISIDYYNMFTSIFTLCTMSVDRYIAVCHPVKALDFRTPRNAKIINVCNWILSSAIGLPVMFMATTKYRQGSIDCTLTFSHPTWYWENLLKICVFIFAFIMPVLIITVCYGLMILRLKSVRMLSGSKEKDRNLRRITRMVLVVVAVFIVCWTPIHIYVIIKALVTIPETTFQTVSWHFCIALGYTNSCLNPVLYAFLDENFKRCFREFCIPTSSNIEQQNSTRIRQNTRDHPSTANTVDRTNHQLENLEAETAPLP
T2 sequence (P41143 whole entry): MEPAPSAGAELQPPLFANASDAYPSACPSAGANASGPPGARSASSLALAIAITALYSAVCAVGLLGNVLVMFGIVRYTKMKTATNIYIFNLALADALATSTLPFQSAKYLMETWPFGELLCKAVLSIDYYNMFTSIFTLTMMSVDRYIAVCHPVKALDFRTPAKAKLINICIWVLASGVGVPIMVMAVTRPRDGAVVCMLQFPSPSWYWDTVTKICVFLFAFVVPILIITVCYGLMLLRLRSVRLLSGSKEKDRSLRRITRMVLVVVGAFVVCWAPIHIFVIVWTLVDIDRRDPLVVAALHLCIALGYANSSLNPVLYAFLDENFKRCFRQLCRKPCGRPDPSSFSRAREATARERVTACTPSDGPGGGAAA
T1 sequence (P41145 whole entry): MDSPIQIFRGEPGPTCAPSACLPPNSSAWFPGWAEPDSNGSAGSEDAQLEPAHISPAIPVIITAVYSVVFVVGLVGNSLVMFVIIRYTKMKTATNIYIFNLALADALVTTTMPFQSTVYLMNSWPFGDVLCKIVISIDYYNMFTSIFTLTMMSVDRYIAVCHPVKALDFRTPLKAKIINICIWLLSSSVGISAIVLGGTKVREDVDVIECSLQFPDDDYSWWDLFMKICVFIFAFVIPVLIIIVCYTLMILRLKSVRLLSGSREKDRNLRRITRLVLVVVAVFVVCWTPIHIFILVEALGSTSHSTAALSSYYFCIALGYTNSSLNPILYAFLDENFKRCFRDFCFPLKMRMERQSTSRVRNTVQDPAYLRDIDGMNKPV

Molecule: COc1cccc([C@]2(C)CCN(C[C@@H](NC(=O)[C@H]3Cc4ccc(O)cc4CN3)C(C)C)C[C@@H]2C)c1 (as salt: hydrochloride) [Compound 8d, (3R)-7-Hydroxy-N-[(1S)-1-{[(3R,4R)-4-(3-methoxyphenyl)-3,4-dimethylpiperidin-1-yl]methyl}-2-methylpropyl]-1,2,3,4-tetrahydroisoquinoline-3-carboxamide]
- melting point: > 220 °C (dec.)

Molecule: CC[C@H](C)[C@@H](CN1CC[C@@](C)(c2cccc(OC)c2)[C@@H](C)C1)NC(=O)[C@H]1Cc2ccc(O)cc2CN1 (as salt: hydrochloride) [Compound 8f, (3R)-7-Hydroxy-N-[(1S,2S)-1-{[(3R,4R)-4-(3-methoxyphenyl)-3,4-dimethylpiperidin-1-yl]methyl}-2-methylbutanyl]-1,2,3,4-tetrahydroisoquinoline-3-carboxamide]
- melting point: > 220 °C (dec.)

Molecule: COc1cccc([C@]2(C)CCN(C[C@@H](NC(=O)[C@@]3(C)Cc4ccc(O)cc4CN3)C(C)C)C[C@@H]2C)c1 (as salt: hydrochloride) [Compound 8h, (3R)-7-Hydroxy-N-[(1S)-1-{[(3R,4R)-4-(3-methoxyphenyl)-3,4-dimethylpiperidin-1-yl]methyl}-2-methylpropyl]-3-methyl-1,2,3,4-tetrahydroisoquinoline-3-carboxamide]
- melting point: > 220 °C (dec.)

Molecule: CC[C@H](C)[C@@H](CN1CC[C@@](C)(c2cccc(O)c2)[C@@H](C)C1)NC(=O)[C@@]1(C)Cc2ccc(O)cc2CN1 (as salt: hydrochloride) [Compound 8i, (3R)-7-Hydroxy-N-[(1S,2S)-1-{[(3R,4R)-4-(3-hydroxyphenyl)-3,4-dimethylpiperidin-1-yl]methyl}-2-methylbutanyl]-3-methyl-1,2,3,4-tetrahydroisoquinoline-3-carboxamide]
- melting point: > 220 °C (dec.)

Molecule: CC[C@H](C)[C@@H](CN1CC[C@@](C)(c2cccc(O)c2)[C@@H](C)C1)NC(=O)[C@H]1Cc2ccc(O)cc2CN1C (as salt: hydrochloride) [Compound 8j, (3R)-7-Hydroxy-N-[(1S,2S)-1-{[(3R,4R)-4-(3-hydroxyphenyl)-3,4-dimethylpiperidin-1-yl]methyl}-2-methylbutanyl]-2-methyl-1,2,3,4-tetrahydroisoquinoline-3-carboxamide]
- melting point: 180 °C (dec.)

Molecule: COc1cccc([C@]2(C)CCN(C[C@@H](NC(=O)[C@H]3Cc4ccc(O)cc4CN3C)C(C)C)C[C@@H]2C)c1 (as salt: hydrochloride) [Compound 8k, (3R)-7-Hydroxy-N-[(1S)-1-{[(3R,4R)-4-(3-methoxyphenyl)-3,4-dimethylpiperidin-1-yl]methyl}-2-methylpropyl]-2-methyl-1,2,3,4-tetrahydroisoquinoline-3-carboxamide]
- melting point: 210 to 215 °C (dec.)

Molecule: COc1cccc([C@]2(C)CCN(C[C@@H](NC(=O)[C@@]3(C)Cc4ccc(OC)cc4CN3)C(C)C)C[C@@H]2C)c1 (as salt: hydrochloride) [Compound 8l, (3R)-7-Methoxy-N-[(1S)-1-{[(3R,4R)-4-(3-methoxyphenyl)-3,4-dimethylpiperidin-1-yl]methyl}-2-methylpropyl]-3-methyl-1,2,3,4-tetrahydroisoquinoline-3-carboxamide]
- melting point: > 220 °C (dec.)

Molecule: CC[C@H](C)[C@@H](CN1CC[C@@](C)(c2cccc(OC)c2)[C@@H](C)C1)NC(=O)[C@@]1(C)Cc2ccc(O)cc2CN1 (as salt: hydrochloride) [Compound 8n, (3R)-7-Hydroxy-N-[(1S,2S)-1-{[(3R,4R)-4-(3-methoxyphenyl)-3,4-dimethylpiperidin-1-yl]methyl}-2-methylbutanyl)-3-methyl-1,2,3,4-tetrahydroisoquinoline-3-carboxamide]
- melting point: 210 °C (dec.)

Molecule: COc1ccc2c(c1)CN(C)[C@@](C)(C(=O)N[C@H](CN1CC[C@@](C)(c3cccc(O)c3)[C@@H](C)C1)C(C)C)C2 (as salt: hydrochloride) [Compound 8o, (3R)-7-Methoxy-N-[(1S)-1-{[(3R,4R)-4-(3-hydroxyphenyl)-3,4-dimethylpiperidin-1-yl]methyl}-2-methylpropyl]-2,3-dimethyl-1,2,3,4-tetrahydroisoquinoline-3-carboxamide]
- melting point: 199 °C (dec.)

Molecule: CC[C@H](C)[C@@H](CN1CC[C@@](C)(c2cccc(OC)c2)[C@@H](C)C1)NC(=O)[C@H]1Cc2ccc(O)cc2CN1C (as salt: hydrochloride) [Compound 8p, (3R)-7-Hydroxy-N-[(1S,2S)-1-{[(3R,4R)-4-(3-methoxyphenyl)-3,4-dimethylpiperidin-1-yl]methyl}-2-methylbutanyl]-2-methyl-1,2,3,4-tetrahydroisoquinoline-3-carboxamide]
- melting point: 180 °C (dec.)

Molecule: Oc1ccc2c3c1O[C@H]1c4[nH]c5c(c4C[C@@]4(O)[C@@H](C2)N(CC2CC2)CC[C@]314)C[C@@]1(O)[C@H]2Cc3ccc(O)c4c3[C@@]1(CCN2CC1CC1)[C@H]5O4 [Compound 1, nor-BNI]
- fear and stress-induced responses (rodents): dose-dependently reduce fear and stress-induced responses

Molecule: CC(C)[C@@H](CN1CC[C@@](C)(c2cccc(O)c2)[C@@H](C)C1)NC(=O)[C@H]1Cc2ccc(O)cc2CN1 [Compound 3, (3R)-7-hydroxy-N-((1S)-1-{[(3R,4R)-4-(3-hydroxyphenyl)-3,4-dimethyl-1-piperidinyl]methyl}-2-methylpropyl)-1,2,3,4-tetrahydro-3-isoquinolinecarboxamide]
- κ, U69,593 Ke [1]: 0.02 nM
- antagonism of the antinociceptive activity of enadoline (mice): oral activity
- Ke value at the κ-opioid receptor [2]: 0.02 nM
- intrinsic activity at the δ opioid receptor [3]: none of the compounds displayed measurable intrinsic activity
- fear and stress-induced responses (rodents): dose-dependently reduce fear and stress-induced responses
- potency at blocking κ-opioid agonist-induced activity (κ-opioid receptor): more potent
- intrinsic activity at the μ opioid receptor [4]: none of the compounds displayed measurable intrinsic activity
- intrinsic activity at the κ opioid receptor [5]: none of the compounds displayed measurable intrinsic activity
- prevention of stress-induced cocaine reinstatement of self-administration (rats): oral activity

Molecule: CCC(C)C(CN1CCC(C)(c2cccc(O)c2)C(C)C1)NC(=O)C1Cc2ccc(O)cc2CN1 (stereo not drawn) [Compound 8a]
- κ, U69,593 Ke [1]: 0.03 nM
- κ, U69,593 Ke (nM) [1]: 0.03 ± 0.02^c nM
- δ/κ [1]: 800
- Ke value at the κ-opioid receptor [2]: 0.03 nM
- κ selectivity relative to the δ opioid receptor [2]: 800 fold
- κ selectivity relative to the μ opioid receptor [2]: 100 fold
- μ, DAMGO Ke (nM) [6, 8]: 3 ± 1^c nM
- potency at μ receptors compared to 3 [6]: increased potency; also recorded: eight-fold increase in potency
- δ, DPDPE Ke (nM) [7]: 24 ± 4^c nM

Molecule: COc1ccc2c(c1)CNC(C(=O)NC(CN1CCC(C)(c3cccc(O)c3)C(C)C1)C(C)C)C2 (stereo not drawn) [Compound 8b]
- κ, U69,593 Ke [1]: 0.06 nM
- κ, U69,593 Ke (nM) [1]: 0.06 ± 0.01^c nM
- decrease in potency at the κ receptor relative to 3 ([1]; compared with 3): 3 fold
- δ/κ [1]: 1970
- μ/κ [1]: 857
- Ke value at the κ-opioid receptor [2]: 0.06 nM
- fold less potent than 3 at the κ-opioid receptor [2]: 3 fold
- κ selectivity relative to the δ opioid receptor [2]: 1970 fold
- κ selectivity relative to the μ opioid receptor [2]: 857 fold
- μ, DAMGO Ke (nM) [6, 8]: 51.4 ± 15^c nM
- δ, DPDPE Ke (nM) [7]: 118 ± 45^c nM

Molecule: (3R)-7-Methoxy-N-[(1S,2S)-1-{[(3R,4R)-4-(3-hydroxyphenyl)-3,4-dimethylpiperidin-1-yl]}-2-methylbutanyl]-3-methyl-1,2,3,4-tetrahydroisoquinoline-3-carboxamide [Compound 8m]
- δ/κ [1]: 5
- μ/κ [1]: 5
- μ, DAMGO Ke [6, 8]: 17.5 ± 3.6 nM
- potency at μ receptors compared to 3 [6]: increased potency
- δ, DPDPE Ke [7]: 18.7 ± 1.5 nM
